Measurements: PubChem BioAssay AID248 (DTP/NCI, 2004)
Several values for one entry are separate records, joined by “and”; a condition that tells them apart may be missing. Identical values can stand only once. Inconclusive results and toxic doses are left out. No stated cut-off is given here; in the data, active means T/C of 150% or more; inactive means T/C below 125%.

System: L1210 leukemia ip in BDF1 mice, survival T/C
Assay: NCI In Vivo Anticancer Drug Screen. Data for tumor model L1210 Leukemia (intraperitoneal) in B6D2F1 (BDF1) mice
Details: endpoint: mean survival time, higher = longer survival
Procedure, shortened: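 Read-out is survival time, reported as the treated-group measurement over the vehicle-control measurement.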

[1] = dose: 100.0 mg/kg/injection, schedule: Q04DX002 (ip), vehicle: Klucel (hydroxypropylcellulose) (HPC)
[2] = dose: 200.0 mg/kg/injection, schedule: Q04DX002 (ip), vehicle: Klucel (hydroxypropylcellulose) (HPC)
[3] = dose: 400.0 mg/kg/injection, schedule: Q04DX002 (ip), vehicle: Klucel (hydroxypropylcellulose) (HPC)
[4] = dose: 100.0 mg/kg/injection, schedule: Q01DX001 (ip), vehicle: saline
[5] = dose: 200.0 mg/kg/injection, schedule: Q01DX001 (ip), vehicle: saline
[6] = dose: 400.0 mg/kg/injection, schedule: Q01DX001 (ip), vehicle: saline
[7] = dose: 100.0 mg/kg/injection, schedule: Q01DX009 (ip), vehicle: Klucel (hydroxypropylcellulose) (HPC)
[8] = dose: 100.0 mg/kg/injection, schedule: Q04DX003 (ip), vehicle: Klucel (hydroxypropylcellulose) (HPC)
[9] = dose: 200.0 mg/kg/injection, schedule: Q01DX009 (ip), vehicle: Klucel (hydroxypropylcellulose) (HPC)
[10] = dose: 200.0 mg/kg/injection, schedule: Q04DX003 (ip), vehicle: Klucel (hydroxypropylcellulose) (HPC)
[11] = dose: 400.0 mg/kg/injection, schedule: Q01DX009 (ip), vehicle: Klucel (hydroxypropylcellulose) (HPC)
[12] = dose: 400.0 mg/kg/injection, schedule: Q04DX003 (ip), vehicle: Klucel (hydroxypropylcellulose) (HPC)

Measured: T/C

CCCCNC(=O)C(=O)NCCCC
inactive: dose: 100.0 mg/kg/injection, schedule: Q01DX001 (ip), vehicle: Klucel (hydroxypropylcellulose) (HPC) 108 % of control | dose: 100.0 mg/kg/injection, schedule: Q01DX009 (ip), vehicle: other 90 % of control | [1] 96 % of control | dose: 200.0 mg/kg/injection, schedule: Q01DX001 (ip), vehicle: Klucel (hydroxypropylcellulose) (HPC) 103 % of control | dose: 200.0 mg/kg/injection, schedule: Q01DX009 (ip), vehicle: other 94 % of control | [2] 96 % of control | dose: 400.0 mg/kg/injection, schedule: Q01DX001 (ip), vehicle: Klucel (hydroxypropylcellulose) (HPC) 97 % of control | dose: 400.0 mg/kg/injection, schedule: Q01DX009 (ip), vehicle: other 95 % of control | [3] 103 % of control

O=[N+]([O-])c1cc(C(F)(F)C(F)(F)C(F)(F)c2ccc(O)c([N+](=O)[O-])c2)ccc1O
inactive: dose: 25.6 mg/kg/injection, schedule: Q04DX002 (ip), vehicle: saline with Tween-80 95 % of control | dose: 64.0 mg/kg/injection, schedule: Q04DX002 (ip), vehicle: saline with Tween-80 100 % of control | dose: 160.0 mg/kg/injection, schedule: Q04DX002 (ip), vehicle: saline with Tween-80 92 % of control

C=CCc1cccc(CC=C)c1OCCN(CC)CC
inactive: dose: 25.0 mg/kg/injection, schedule: Q01DX009 (ip), vehicle: saline 98 % of control | dose: 50.0 mg/kg/injection, schedule: Q01DX009 (ip), vehicle: saline 105 % of control | dose: 100.0 mg/kg/injection, schedule: Q01DX009 (ip), vehicle: saline 95 % of control and 107 % of control

CCCN1CCCC(OC(=O)N(C)C)C1 (stereo not drawn)
inactive: [1] 86 % of control | [2] 104 % of control

O=C(NC1CCCCC1)C(=O)NC1CCCCC1
inactive: dose: 50.0 mg/kg/injection, schedule: Q01DX001 (ip), vehicle: saline 102 % of control | [4] 98 % of control | [1] 89 % of control | [5] 98 % of control | [2] 95 % of control | [6] 96 % of control | [3] 103 % of control

CN(C)CCN(C)C(=O)C(c1ccccc1)C1CCCCC1 (stereo not drawn)
inactive: dose: 75.0 mg/kg/injection, schedule: Q01DX001 (ip), vehicle: saline 103 % of control | dose: 150.0 mg/kg/injection, schedule: Q01DX001 (ip), vehicle: saline 97 % of control

Cc1c2c(cc3c1CCCC3)CCCC2
inactive: dose: 100.0 mg/kg/injection, schedule: Q01DX001 (ip), vehicle: saline with Tween-80 93 % of control | dose: 200.0 mg/kg/injection, schedule: Q01DX001 (ip), vehicle: saline with Tween-80 93 % of control | dose: 400.0 mg/kg/injection, schedule: Q01DX001 (ip), vehicle: saline with Tween-80 92 % of control

CCCCC(=O)OC1CC(C)CCC1C(C)C (stereo not drawn)
inactive: [7] 98 % of control | [8] 93 % of control | [9] 106 % of control | [10] 96 % of control | [11] 98 % of control | [12] 93 % of control

CCCCS(=O)/C=C\S(=O)CCCC (stereo not drawn)
inactive: dose: 100.0 mg/kg/injection, schedule: Q04DX002 (ip), vehicle: saline 117 % of control | dose: 200.0 mg/kg/injection, schedule: Q04DX002 (ip), vehicle: saline 106 % of control

O=[N+]([O-])c1ccc(O)c(N=Cc2ccccn2)c1
inactive: [4] 90 % of control | [5] 90 % of control | [6] 100 % of control

COc1ccccc1/C=N/Nc1nnc(N/N=C/c2ccccc2OC)c2ccccc12
inactive: dose: 50.0 mg/kg/injection, schedule: Q01DX001 (ip), vehicle: carboxymethylcellulose (CMC) 107 % of control | dose: 100.0 mg/kg/injection, schedule: Q01DX001 (ip), vehicle: carboxymethylcellulose (CMC) 103 % of control | dose: 200.0 mg/kg/injection, schedule: Q01DX001 (ip), vehicle: carboxymethylcellulose (CMC) 101 % of control | dose: 400.0 mg/kg/injection, schedule: Q01DX001 (ip), vehicle: carboxymethylcellulose (CMC) 103 % of control

Fc1ccc(NC2(c3nnnn3C3CCCCC3)CCNCC2)cc1
inactive: dose: 6.25 mg/kg/injection, schedule: Q01DX001 (ip), vehicle: saline with Tween-80 102 % of control | dose: 12.5 mg/kg/injection, schedule: Q01DX001 (ip), vehicle: saline with Tween-80 100 % of control | dose: 25.0 mg/kg/injection, schedule: Q01DX001 (ip), vehicle: saline with Tween-80 98 % of control

CSC1CCCC(=O)C1 (stereo not drawn)
inactive: [7] 98 % of control | [8] 96 % of control | [9] 101 % of control | [10] 97 % of control | [11] 96 % of control | [12] 105 % of control
